From patent publication US8916599B2, “1H-benz imidazole-5-carboxamides as anti-inflammatory agents” (Orexo AB, priority 2008, dated 2014)

The molecules below were run against T1, recombinant human mPGES-1 (Homo sapiens, UniProt O14684) (assay: mPGES-1 inhibition test (microsomes, PGH2 substrate, HTRF detection of PGE2)). Details: inhibition of mPGES-1 at 1 μM (marked in cell).
T1 construct: made in house; host or cells: Rosetta E. coli (microsomal/membrane fraction)
T1 sequence (O14684 1-152): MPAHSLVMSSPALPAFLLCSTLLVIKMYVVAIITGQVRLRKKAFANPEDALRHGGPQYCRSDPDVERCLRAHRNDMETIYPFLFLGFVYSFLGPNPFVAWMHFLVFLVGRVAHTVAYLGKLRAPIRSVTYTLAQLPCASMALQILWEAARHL
Type: biochemical
Protocol: Microsomes from Rosetta E. coli bacteria expressing recombinant human mPGES-1 is dissolved in 0.1 M KPi pH 7.4 buffer containing 2.5 mM GSH. 50 μl of the enzyme is subsequently dispensed in a 384-well plate. 0.5 μl of the inhibitor dissolved in DMSO at is thereafter added to each well and incubated for 25 minutes at room temperature. Subsequently, 2 μl of PGH2 dissolved in an appropriate solvent is added to each well and after one minute the acidified stop solution containing FeCl2 is added. 4 μl of the total volume is transferred to a separate plate and diluted 750-fold in two separate steps before HTRF detection of PGE2.
The HTRf detection is performed by the use of a commercially available kit from CisBio essentially according to the manufacturer's protocol. Briefly, 10 μl of the diluted sample is transferred to a white 384-well plate. 5 μl of d2 and 5 μl Eu3+-Cryptate labeled anti-PGE2 is added to each well containing samples by the use of a Multidrop. The plate is covered with a plastic self-adhesive film, centrifuged at 1200 rpm for 1 minute and subsequently stored at +4° C. over night.
After over night incubation the fluorescence is measured by the use of an appropriate microplate reader. The fluorescence of europium cryptate, and d2 are measured using the following excitation and emission wavelength, europium cryptate: λmax^ex=307 nm, λmax^em=620 nm and d2: λmax^ex=620 nm, λmax^em=665 nm), respectively. The extent of the specific FRET is measured as a ratio of the emission intensity at 665 nm vs. that at 620 nm. A standard curve using synthetic PGE2 is used to quantify the amount of PGE2 in unknown samples.

inhibition at 1 µM [%]	Structure (SMILES)
96	Cc1ccc(Cl)c(Nc2nc3cc(C(=O)NC4CCCCC4)c(F)cc3[nH]2)c1F [Example 649, 2-(6-Chloro-2-fluoro-3-methyl-phenylamino)-N-cyclohexyl-6-fluoro-1H-benzimidazole-5-carboxamide]

Same assay, conditions: inhibition of mPGES-1 at 10 μM

inhibition at 10 µM [%]	Structure (SMILES)
94	COc1cc2c(cc1C(=O)NC1CCCCC1)nc(Nc1c(Cl)ccc(Cl)c1F)n2C [Example 619, 2-(3,6-Dichloro-2-fluoro-phenylamino)-6-methoxy-N-cyclohexyl-1-methyl-1H-benzimidazole-5-carboxamide]
100	O=C(Nc1ccc(Br)cc1)c1cc2nc(Nc3c(F)ccc(Cl)c3Cl)[nH]c2cc1OCC(F)(F)F [Example 588, N-(4-Bromo-phenyl)-2-(2,3-dichloro-6-fluoro-phenylamino)-6-(2,2,2-trifluoroethoxy)-1H-benzimidazole-5-carboxamide]
100	Cn1c(Nc2c(Cl)cc(F)cc2Cl)nc2cc(C(=O)NC3CCC(C)(C)CC3)ccc21 [Example 420, 2-(2,6-Dichloro-4-fluorophenylamino)-N-(4,4-dimethylcyclohexyl)-1-methyl-1H-benzimidazole-5-carboxamide]
100	COc1cc2c(cc1C(=O)NCc1ncccc1C(F)(F)F)nc(Nc1c(Cl)cccc1Cl)n2C [Example 370, 2-(2,6-Dichlorophenylamino)-6-methoxy-1-methyl-N-((3-trifluoromethyl-pyridin-2-yl)methyl)-1H-benzimidazole-5-carboxamide]
77	CCc1ccc(C)nc1NC(=O)c1ccc2[nH]c(Nc3c(Cl)cccc3Cl)nc2c1 [Example 558, 2-(2,6-Dichlorophenylamino)-N-(3-ethyl-6-methylpyridin-2-yl)-1H-benzimidazole-5-carboxamide]
99	Cn1c(Nc2c(Cl)cccc2Cl)nc2cc(C(=O)Nc3cc(C(C)(C)C)ccn3)ccc21 [Example 464, N-(4-tert.-Butylpyridin-2-yl)-2-(2,6-dichlorophenylamino)-1-methyl-1H-benzimidazole-5-carboxamide]
91	Cn1c(Nc2ccc(C(N)=O)cc2Cl)nc2cc(C(=O)Nc3ccc(Br)cc3)ccc21 [Example 543, N-(4-Bromophenyl)-2-(4-carbamoyl-2-chlorophenylamino)-1-methyl-1H-benzimidazole-5-carboxamide]
100	CC(C)(C)[C@H]1CC[C@@H](NC(=O)c2cc3nc(Nc4c(F)cccc4Cl)[nH]c3cc2F)CC1 [Example 378, N-((1s,4s)-4-tert.-Butylcyclohexyl)-2-(2-chloro-6-fluorophenylamino)-6-fluoro-1H-benzimidazole-5-carboxamide]
97	CN(C)C(=O)c1ccc(Nc2nc3cc(C(=O)Nc4ccc(Br)cc4)ccc3n2C)c(Cl)c1 [Example 562, N-(4-Bromophenyl)-2-(2-chloro-4-(dimethylcarbamoyl)-phenylamino)-1-methyl-1H-benzimidazole-5-carboxamide]
84	CC(C)NC(=O)c1cc(Br)c2[nH]c(Nc3c(Cl)cccc3Cl)nc2c1 [Example 570, 7-Bromo-N-isopropyl-2-(2,6-dichlorophenylamino)-1H-benzimidazole-5-carboxamide]

Continued, molecule first:

Structure (SMILES)	inhibition at 10 µM [%]
CS(=O)(=O)CCn1c(Nc2c(Cl)cccc2Cl)nc2cc(C(=O)Nc3cc(Cl)ccn3)ccc21 [Example 269, 2-(2,6-Dichloro-phenylamino)-1-(2-methanesulfonyl-ethyl)-1H-benzimidazole-5-carboxylic acid (4-chloro-pyridin-2-yl)-amide]	85
O=C(Nc1cc(Cl)ccn1)c1ccc2c(c1)nc(Nc1c(Cl)cccc1Cl)n2CCO [Example 271, 2-(2,6-Dichloro-phenylamino)-1-(2-hydroxy-ethyl)-1H-benzimidazole-5-carboxylic acid (4-chloro-pyridin-2-yl)-amide]	98
O=C(Nc1cccc(C(F)(F)F)n1)c1ccc2[nH]c(Nc3c(Cl)cccc3Cl)nc2c1 [Example 305, 2-(2,6-Dichloro-phenylamino)-1H-benzimidazole-5-carboxylic acid (6-trifluoromethyl-pyridin-2-yl)-amide]	100
Cn1c(Nc2c(F)cccc2C(F)(F)F)nc2cc(C(=O)Nc3ccc(Br)cc3)ccc21 [Example 358, N-(4-Bromophenyl)-2-(2-fluoro-6-trifluoromethyl-phenylamino)-1-methyl-1H-benzimidazole-5-carboxamide]	100
Cn1c(Nc2c(Cl)cccc2Cl)nc2cc(C(=O)NC34CC5CC(CC(C5)C3)C4)c(F)cc21 [Example 165, 2-(2,6-Dichloro-phenylamino)-6-fluoro-1-methyl-1H-benzimidazole-5-carboxylic acid adamantan-1-ylamide]	98
Cn1c(Nc2c(F)cccc2F)nc2cc(C(=O)Nc3ccc(Br)cc3)ccc21 [Example 173, 2-(2,6-Difluoro-phenylamino)-1-methyl-1H-benzimidazole-5-carboxylic acid (4-bromo-phenyl)-amide]	97
COCCn1c(Nc2c(Cl)cccc2Cl)nc2cc(C(=O)Nc3cccc(Cl)c3)ccc21 [Example 181, 2-(2,6-Dichloro-phenylamino)-1-(2-methoxy-ethyl)-1H-benzimidazole-5-carboxylic acid (3-chloro-phenyl)-amide]	100
Cc1ccccc1Nc1nc2cc(C(=O)Nc3ccccc3)ccc2[nH]1 [Example 10, 2-(o-Tolyl-amino)-1H-benzimidazole-5-carboxylic acid-phenylamide]	98
Cc1cccc(NC(=O)c2ccc3[nH]c(Nc4c(Cl)cccc4Cl)nc3c2)c1 [Example 4, 2-(2,6-Dichloro-phenylamino)-1H-benzimidazole-5-carboxylic acid m-tolylamide]	100
CO[C@H]1CC[C@H](NC(=O)c2ccc3[nH]c(Nc4c(Cl)cccc4Cl)nc3c2)CC1 [Example 216, 2-(2,6-Dichloro-phenylamino)-1H-benzimidazole-5-carboxylic acid ((1R,4R)-4-methoxy-cyclohexyl)-amide]	64
Cn1c(Nc2c(Cl)cccc2Cl)nc2cc(C(=O)Nc3cccc(Cl)n3)ccc21 [Example 347, 2-(2,6-Dichloro-phenylamino)-1-methyl-1H-benzimidazole-5-carboxylic acid (6-chloro-pyridin-2-yl)-amide]	100
Cn1c(Nc2c(Cl)cccc2Cl)nc2cc(C(=O)Nc3ccccc3)ccc21 [Example 20, 2-(2,6-Dichloro-phenylamino)-1-methyl-1H-benzimidazole-5-carboxylic acid phenylamide]	97
O=C(NC1CCC(F)(F)CC1)c1ccc2nc(Nc3c(Cl)cccc3Cl)[nH]c2c1 [Example 147, 2-(2,6-Dichloro-phenylamino)-3H-benzimidazole-5-carboxylic acid (4,4-difluoro-cyclohexyl)-amide]	94
O=C(Nc1cc(Br)ccn1)c1ccc2[nH]c(Nc3c(Cl)cccc3Cl)nc2c1 [Example 184, 2-(2,6-Dichloro-phenylamino)-1H-benzimidazole-5-carboxylic acid (4-bromo-pyridin-2-yl)-amide]	98
O=C(Nc1ccc(I)cc1)c1ccc2[nH]c(Nc3c(Cl)cccc3Cl)nc2c1 [Example 84, 2-(2,6-Dichloro-phenylamino)-1H-benzimidazole-5-carboxylic acid (4-iodo-phenyl)-amide]	100
